Data published in patent US11446282B2, “Methods of treating mixed dyslipidemia and hypertriglycertdemia” (Kowa Company, Ltd., priority 2017, dated 2022).

Tested on: dyslipidemic patients with statin
Experiment: Example 4 pooled analysis: lipoprotein subclasses by HPLC, with statin, by eGFR
Assay type: in vivo, human
Conditions: for Small HDL-C % Change from baseline to week 12 / Small LDL-C % Change from baseline to week 12 / Very small HDL-C % Change from baseline to week 12 / Very small LDL-C % Change from baseline to week 12: LS mean
Protocol: The present study analyzed data combined from 6 randomized double-blind placebo-controlled studies that were conducted in Japan and continued for 12 weeks unless otherwise noted: a phase 2 study in 224 patients with a history of documented dyslipidemia and plasma TG of 200 mg/dL (2.26 mmol/L) or higher, randomized to placebo, pemafibrate 0.05, 0.1, 0.2, 0.4 mg/day, or fenofibrate 100 mg/day; a phase 3 study in 526 patients with dyslipidemia, high TG levels, and low HDL-C levels, randomized to placebo, pemafibrate 0.1, 0.2, or 0.4 mg/day, or fenofibrate 100 or 200 mg/day; a study in 188 patients with dyslipidemia, randomized to pitavastatin in combination with pemafibrate 0.1, 0.2, or 0.4 mg/day; a 24-week study in 423 patients with dyslipidemia, randomized to pemafibrate 0.2 mg/day (fixed dose) or 0.2 [0.4] mg/day (conditional up-titration) with any statin; a 24-week phase 3 study in 166 patients with type 2 diabetes and hypertriglyceridemia, randomized to placebo or pemafibrate 0.2 or 0.4 mg/day; and a study in 27 patients with hypertriglyceridemia and insulin resistance, randomized to pemafibrate 0.4 mg/day or placebo. All studies were approved by the Institutional Review Board for each study institution and were conducted in accordance with the Declaration of Helsinki and under the guidelines of Good Clinical Practice.
In this study, we evaluated the efficacy and safety of pemafibrate at doses of 0.1 mg/day, 0.2 mg/day, and 0.4 mg/day, with and without statin. The primary efficacy endpoint was percent change in TG from baseline to 12 weeks. The secondary efficacy endpoints were also assessed from baseline to 12 weeks: percent change in HDL-C, LDL-C, non-HDL-C, TC, RemL-C, Apo AI, Apo AII, Apo B, Apo B48, Apo CII, Apo CIII, Apo CIII/Apo CII, and Apo E; percent change in HPLC findings for CM-C, VLDL-C, cholesterol content in 4 subclasses of LDL (large, medium, small, and very small LDLs), and cholesterol content for 5 subclasses of HDL (very large, large, medium, small, and very small HDLs); and changes in fibrinogen and FGF21. The primary safety endpoints were the incidence of adverse events and adverse drug reactions. Secondary safety endpoints were percentage of values above the upper limit of normal range for AST, ALT, sCr and CK, and change in sCr eGFR, CK, AST, ALT, gamma-glutamyl transferase (γ-GT), alkaline phosphatase (ALP), and total bilirubin.
Patients with renal dysfunction were defined as those with baseline eGFR<60 mL/min/1.73 m^2. Analysis was stratified by the presence or absence of renal dysfunction in the concomitant statin group, and efficacy and safety of pemafibrate were evaluated. In efficacy and safety evaluations excluding AEs, ADRs, and cutoff values for AST, ALT, sCr, and CK, findings were combined for pemafibrate subgroups receiving doses of 0.1 mg/day, 0.2 mg/day, and 0.4 mg/day.
For each lipid parameter, gel filtration HPLC was performed at Skylight Biotech, Inc. Other measurements were performed at LSI Medience Corporation. The FAS was used for analyzing efficacy parameters of effects on lipids, fibrinogen, and FGF21. The safety analysis set was used for safety parameters and included all patients who received at least one dose of the study drug. For lipid parameters, fibrinogen, and FGF21, LS means (95% confidence interval) were calculated at Week 12 (LOCF) using analysis of covariance (ANCOVA) with baseline values as the co-variable within each category. For safety parameters, LS means (95% confidence interval) were calculated at Week 12 using ANCOVA with baseline values as the co-variable within each category. SAS version 9.2 was used for analyses.

[1] = Baseline eGFR < 60 mL/min/1.73 m^2, 0.1-0.4 mg/day
[2] = Baseline eGFR ≥ 60 mL/min/1.73 m^2, 0.1-0.4 mg/day

CC[C@@H](Oc1cccc(CN(CCCOc2ccc(OC)cc2)c2nc3ccccc3o2)c1)C(=O)O [Pemafibrate, (2R)-2-[3-({1,3-benzoxazol-2-yl[3-(4-methoxyphenoxy)propyl]amino}methyl)phenoxy]butanoic acid]
Small HDL-C Week 12 (LOCF) [1]: 0.484 mmol/L
Small LDL-C Week 12 (LOCF) [1]: 0.577 mmol/L
Very small HDL-C Week 12 (LOCF) [1]: 0.208 mmol/L
Very small LDL-C Week 12 (LOCF) [1]: 0.229 mmol/L
Small HDL-C % Change from baseline to week 12 [1]: 34.9%
Small LDL-C % Change from baseline to week 12 [1]: −7.8%
Very small HDL-C % Change from baseline to week 12 [1]: 25.2%
Very small LDL-C % Change from baseline to week 12 [1]: −14.6%
Small HDL-C Week 12 (LOCF) [2]: 0.470 mmol/L
Small LDL-C Week 12 (LOCF) [2]: 0.576 mmol/L
Very small HDL-C Week 12 (LOCF) [2]: 0.204 mmol/L
Very small LDL-C Week 12 (LOCF) [2]: 0.231 mmol/L
Small HDL-C % Change from baseline to week 12 [2]: 26.7%
Small LDL-C % Change from baseline to week 12 [2]: −6.0%
Very small HDL-C % Change from baseline to week 12 [2]: 19.4%
Very small LDL-C % Change from baseline to week 12 [2]: −12.5%
small and very small LDL-C and HDL particle sizes (observation) (lower eGFR group): improvements
